Measurements as given in US8119661B2, “Piperidine derivatives and their use as muscarinic receptor modulators” (AstraZeneca AB, priority 2007, dated 2012).
pEC50: −log10 of the molar value.

What was measured:
cloned human M2 receptor = molecular target: T1, cloned human M2 receptor (Homo sapiens, UniProt P08172); assay: hM2 receptor GTPγS binding; type: biochemical; details: CHO membranes expressing hM2, [35S]GTPγS binding
T1 construct: purchased Perkin-Elmer RBHM2M; host or cells: CHO cell membranes
T1 sequence (P08172 1-466): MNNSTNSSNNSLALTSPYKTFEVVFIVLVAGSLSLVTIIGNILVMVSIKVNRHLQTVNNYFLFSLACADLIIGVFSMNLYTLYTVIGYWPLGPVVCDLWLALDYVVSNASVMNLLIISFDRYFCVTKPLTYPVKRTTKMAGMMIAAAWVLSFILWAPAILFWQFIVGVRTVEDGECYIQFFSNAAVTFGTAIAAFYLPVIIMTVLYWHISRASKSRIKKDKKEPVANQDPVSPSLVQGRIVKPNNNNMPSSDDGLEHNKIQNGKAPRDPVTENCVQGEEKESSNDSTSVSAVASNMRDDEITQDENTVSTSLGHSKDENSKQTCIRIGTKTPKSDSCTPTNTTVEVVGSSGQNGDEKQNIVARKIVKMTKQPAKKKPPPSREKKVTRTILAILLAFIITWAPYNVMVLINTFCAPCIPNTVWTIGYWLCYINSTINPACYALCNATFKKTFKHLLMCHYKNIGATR
Procedure: Membranes produced from Chinese hamster ovary cells (CHO) expressing the cloned human M2 receptor (human Muscarinic receptor subtype 2, gene bank access NM_000739), are obtained from Perkin-Elmer (RBHM2M). The membranes are thawed at 37° C., passed 3 times through a 23-gauge blunt-end needle, diluted in the GTPγS binding buffer (50 mM Hepes, 20 mM NaOH, 100 mM NaCl, 1 mM EDTA, 5 mM MgCl2, pH 7.4, 100 μM DTT). The EC50, IC50 and Emax of the compounds of the invention are evaluated from 10-point dose-response curves (three fold concentration range) done in 60 μl in 384-well non-specific binding surface plate (Corning). Ten microliters from the dose-response curves plate (5× concentration) are transferred to another 384 well plate containing 25 μl of the following: 5 μg of hM2 membranes, 500 μg of Flashblue beads (Perkin-Elmer) and GDP 25 μM. An additional 15 μl containing 3.3× (60,000 dpm) of GTPγ^35S (0.4 nM final) are added to the wells resulting in a total well volume of 50 μl. Basal and maximal stimulated [^35S]GTPγS binding are determined in absence and presence of 30 μM final of acetylcholine agonist. The membranes/beads mix are pre-incubated for 15 minutes at room temperature with 25 μM GDP prior to distribution in plates (12.5 μM final). The reversal of acetylcholine-induced stimulation (2 μM final) of [^35S]GTPγS binding is used to assay the antagonist properties (IC50) of the compounds. The plates are incubated for 60 minutes at room temperature then centrifuged at 400 rpm for 5 minutes. The radioactivity (cpm) is counted in a Trilux (Perkin-Elmer).
Values of EC50, IC50 and Emax are obtained using sigmoidal fits of a non-linear curve-fitting program (XLfit version 4.2.2 Excel add-in version 4.2.2 build 18 math 1Q version 2.1.2 build 18) of percent stimulated [^35S]GTPγS binding vs. log(molar ligand). All pEC50 and pIC50 values are reported as arithmetic means±standard error of mean of ‘n’ independent experiments.

[1] = molecular target: T2, hM5 (human Muscarinic receptor subtype 5) (Homo sapiens, UniProt P08912); assay: Human M5 calcium mobilization FLIPR assay; type: cell-based; details: CHO cells expressing hM5, intracellular Ca2+ release
T2 construct: expressed in transfected cells; host or cells: CHO cells (Chinese hamster ovary cells, ATCC)
T2 sequence (P08912 1-532): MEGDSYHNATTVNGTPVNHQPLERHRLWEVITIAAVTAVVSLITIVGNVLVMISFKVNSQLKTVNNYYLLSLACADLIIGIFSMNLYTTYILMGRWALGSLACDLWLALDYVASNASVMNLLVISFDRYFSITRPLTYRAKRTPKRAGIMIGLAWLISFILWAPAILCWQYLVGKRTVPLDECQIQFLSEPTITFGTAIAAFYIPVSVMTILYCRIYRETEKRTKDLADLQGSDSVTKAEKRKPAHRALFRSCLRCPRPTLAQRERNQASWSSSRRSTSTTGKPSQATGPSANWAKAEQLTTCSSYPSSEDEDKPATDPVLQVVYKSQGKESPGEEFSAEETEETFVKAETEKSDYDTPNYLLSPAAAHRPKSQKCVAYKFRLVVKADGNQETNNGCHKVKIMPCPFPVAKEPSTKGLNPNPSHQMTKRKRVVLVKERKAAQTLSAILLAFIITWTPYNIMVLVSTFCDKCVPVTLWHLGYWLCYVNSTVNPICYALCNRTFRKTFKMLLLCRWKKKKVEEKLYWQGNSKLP
Procedure: The compound activity in the present invention (EC50 or IC50) is measured using a 384 plate-based imaging assay that monitors drug induced intracellular Ca^2+ release in whole cells. Activation of hM1 (human Muscarinic receptor subtype 1, gene bank access NM_000738), rM1 (rat Muscarinic receptor subtype 1, gene bank access NM_080773), hM3 (human Muscarinic receptor subtype 3, gene bank access NM_000740NM_000740) and hM5 (human Muscarinic receptor subtype 5, gene bank access NM_0121258), receptors expressed in CHO cells (Chinese hamster ovary cells, ATCC) is quantified in a Molecular Devices FLIPR II™ instrument as an increase in fluorescent signal. Inhibition of hM3 and hM5 by compounds is determined by the decrease in fluorescent signal in response to 2 nM acetylcholine activation.
Prior to experiment, the cell culture medium is removed from the plates by inversion. […] Plates are incubated at 37° C. for 60 minutes prior to start the experiment. The incubation is terminated by washing the cells four times in assay buffer, leaving a residual 25 μl buffer per well. Cell plates are then transferred to the FLIPR, ready for compound additions.
The day of experiment, acetylcholine and compounds are diluted in assay buffer in three-fold concentration range (10 points serial dilution) for addition by FLIPR instrument. For all calcium assays, a baseline reading is taken for 10 seconds followed by the addition of 12.5 μl of compounds, resulting in a total well volume of 37.5 μl. Data is collected every second for 60 pictures and then every 6 seconds for 20 pictures prior to the addition of agonist. For hM3 and hM5, before agonist addition, a second baseline reading is taken for 10 seconds followed by the addition of 12.5 μl of agonist or buffer, producing a final volume of 50 μl. After agonist stimulation, the FLIPR continues to collect data every second for 60 pictures and then every 6 seconds for 20 pictures. The fluorescence emission is read using filter 1 (emission 510-570 nm) by the FLIPR on board CCD camera.
Calcium mobilization output data are calculated as the maximal relative fluorescence unit (RFU) minus the minimal value for both compound and agonist reading frame (except for hM1 and rM1 using only the maximal RFU). Data are analyzed using sigmoidal fits of a non-linear curve-fitting program (XLfit version 4.2.2 Excel add-in version 4.2.2 build 18 math 1Q version 2.1.2 build 18). All pEC50 and pIC50 values are reported as arithmetic means±standard error of mean of ‘n’ independent experiments.

pEC50 (cloned human M2 receptor) | pEC50 [1] | SMILES
5.64 | 5.96 | CCOC(=O)N1CCC(C)(N2CCC(N3C(=O)N[C@H]4CCCC[C@@H]43)CC2)C1 (mixture of isomers) [Example 07, Ethyl 3-[4-[(3aS,7aS)-2-oxo-3a,4,5,6,7,7a-hexahydro-3H-benzoimidazol-1-yl]-1-piperidyl]-3-methyl-pyrrolidine-1-carboxylate]
< 6.00 | 6.50 | C#CCOC(=O)N1CCC(C)(N2CCC(N3C(=O)N[C@H]4CCCC[C@@H]43)CC2)C1 (mixture of isomers) [Example 09, Prop-2-ynyl 3-[4-[(3aS,7aS)-2-oxo-3a,4,5,6,7,7a-hexahydro-3H-benzoimidazol-1-yl]-1-piperidyl]-3-methyl-pyrrolidine-1-carboxylate]
6.89 | 6.04 | CCOC(=O)N1CCC(C)(N2CCC(N3C(=O)N[C@@H]4CCCC[C@@H]43)CC2)CC1 (relative stereo) [Example 12, Ethyl 4-[4-[(cis)-2-oxo-3a,4,5,6,7,7a-hexahydro-3H-benzoimidazol-1-yl]-1-piperidyl]-4-methyl-piperidine-1-carboxylate]
< 4.52 | < 4.40 | CC(C)OC(=O)N1CCC(C)(N2CCC(N3C(=O)N[C@@H]4CCCC[C@@H]43)CC2)CC1 (relative stereo) [Example 13, Propan-2-yl 4-[4-[(cis)-2-oxo-3a,4,5,6,7,7a-hexahydro-3H-benzoimidazol-1-yl]-1-piperidyl]-4-methyl-piperidine-1-carboxylate]
5.31 | < 5.08 | CCOC(=O)N1CCC(C)(N2CCC(N3C(=O)N[C@H]4CCCC[C@@H]43)CC2)C1 (single isomer, unassigned) [Example 21]
5.93 | 6.39 | CCOC(=O)N1CCC(C)(N2CCC(N3C(=O)N[C@H]4CCCC[C@@H]43)CC2)C1 (single isomer, unassigned) [Example 22]
7.35 | 7.30 | CCOC(=O)N1CCC(C)(N2CCC(N3C(=O)N[C@H]4CCCC[C@@H]43)CC2)CC1 [Example 01, Ethyl 4-[4-[(3aS,7aS)-2-oxo-3a,4,5,6,7,7a-hexahydro-3H-benzoimidazol-1-yl]-1-piperidyl]-4-methyl-piperidine-1-carboxylate]
< 5.80 | < 4.40 | CC1(N2CCC(N3C(=O)N[C@H]4CCCC[C@@H]43)CC2)CCN(C(=O)C2CC2)CC1 [Example 03, (3aS,7aS)-1-[1-[1-(cyclopropanecarbonyl)-4-methyl-4-piperidyl]-4-piperidyl]-3a,4,5,6,7,7a-hexahydro-3H-benzoimidazol-2-one]
6.32 | 6.23 | CCOC(=O)N1CCC(C)(N2CCC(N3C(=O)N[C@@H]4CCCC[C@H]43)CC2)CC1 [Example 04, Ethyl 4-[4-[(3aR,7aR)-2-oxo-3a,4,5,6,7,7a-hexahydro-3H-benzoimidazol-1-yl]-1-piperidyl]-4-methyl-piperidine-1-carboxylate]
< 4.85 | < 4.31 | CC(C)OC(=O)N1CCC(C)(N2CCC(N3C(=O)N[C@@H]4CCCC[C@H]43)CC2)CC1 [Example 05, Propan-2-yl 4-[4-[(3aR,7aR)-2-oxo-3a,4,5,6,7,7a-hexahydro-3H-benzoimidazol-1-yl]-1-piperidyl]-4-methyl-piperidine-1-carboxylate]
< 4.52 | < 4.31 | CC1(N2CCC(N3C(=O)N[C@@H]4CCCC[C@H]43)CC2)CCN(C(=O)C2CC2)CC1 [Example 06, (3aR,7aR)-1-[1-[1-(cyclopropanecarbonyl)-4-methyl-4-piperidyl]-4-piperidyl]-3a,4,5,6,7,7a-hexahydro-3H-benzoimidazol-2-one]
< 4.52 | < 4.40 | CC(C)OC(=O)N1CCC(C)(N2CCC(N3C(=O)C[C@H]4CCCC[C@@H]43)CC2)CC1 [Example 14, Propan-2-yl 4-[4-[(3aR,7aS)-2-oxo-3a,4,5,6,7,7a-hexahydro-3H-indol-1-yl]-1-piperidyl]-4-methyl-piperidine-1-carboxylate]
< 4.82 | < 4.40 | CC1(N2CCC(N3C(=O)C[C@H]4CCCC[C@@H]43)CC2)CCN(C(=O)C2CC2)CC1 [Example 15, (3aR,7aS)-1-[1-[1-(cyclopropanecarbonyl)-4-methyl-4-piperidyl]-4-piperidyl]-3a,4,5,6,7,7a-hexahydro-3H-indol-2-one]
6.92 | < 4.40 | CC#CCOC(=O)N1CCC(C)(N2CCC(N3C(=O)N[C@H]4CCCC[C@@H]43)CC2)CC1 [Example 16, But-2-ynyl 4-[4-[(3aS,7aS)-2-oxo-3a,4,5,6,7,7a-hexahydro-3H-benzimidazol-1-yl]-1-piperidyl]-4-methyl-piperidine-1-carboxylate]

SMILES | pEC50 (cloned human M2 receptor) | pEC50 [1]
CCOC(=O)N1CCC(C)(N2CCC(N3C(=O)C[C@@H]4CCCC[C@H]43)CC2)C1 (stereo in doubt) [Example 23, Ethyl 3-[4-[(3aS,7aR)-2-oxo-3a,4,5,6,7,7a-hexahydro-3H-indol-1-yl]-1-piperidyl]-3-methyl-pyrrolidine-1-carboxylate] | 5.57 | < 3.92
CC(C)OC(=O)N1CCC(C)(N2CCC(N3C(=O)N[C@H]4CCCC[C@@H]43)CC2)CC1 [Example 02, Propan-2-yl 4-[4-[(3aS,7aS)-2-oxo-3a,4,5,6,7,7a-hexahydro-3H-benzoimidazol-1-yl]-1-piperidyl]-4-methyl-piperidine-1-carboxylate] | < 6.70 | < 4.40
